Reference: patent US9247741B2, “Use of macrocyclic picolinamides as fungicides” (DOW AGROSCIENCES LLC, priority 2013, dated 2016)

Legend:
[1] = system: Cercospora beticola; assay: Leaf spot of sugar beets (CERCBE) disease control; type: in vivo; conditions: 24 h, 1 Day Protectant, sugar beet, read-out: CERCBE disease control rating
Description: Technical grades of materials were dissolved in acetone, which were then mixed with nine volumes of water containing 110 ppm Triton X-100. The fungicide solutions were applied onto wheat seedlings using an automated booth sprayer to run-off. All sprayed plants were allowed to air dry prior to further handling. All fungicides were evaluated using the aforementioned method for their activity vs. all target diseases. Wheat leaf blotch and brown rust activity were also evaluated using track spray applications, in which case the fungicides were formulated as EC formulations, containing 0.1% Trycol 5941 in the spray solutions. Wheat plants (variety Yuma) were grown from seed in a greenhouse in 50% mineral soil/50% soil-less Metro mix until the first leaf was fully emerged, with 7-10 seedlings per pot. These plants were inoculated with an aqueous spore suspension of Septoria tritici either prior to or after fungicide treatments. After inoculation the plants were kept in 100% relative humidity (one day in a dark dew chamber followed by two to three days in a lighted dew chamber at 20° C.) to permit spores to germinate and infect the leaf. The plants were then transferred to a greenhouse set at 20° C. for disease to develop. When disease symptoms were fully expressed on the l^st leaves of untreated plants, infection levels were assessed on a scale of 0 to 100 percent disease severity. Percent disease control was calculated using the ratio of disease severity on treated plants relative to untreated plants. Evaluation of Fungicidal Activity: Leaf Spot of Sugar Beets (Cercospora beticola; Bayer Code CERCBE) Sugar beet plants (variety HH88) were grown in soil-less Metro mix and trimmed regularly to maintain a uniform plant size prior to test. Plants were inoculated with a spore suspension 24 hr after fungicide treatments. Inoculated plants were kept in a dew chamber at 22° C. for 48 hr then incubated in a greenhouse set at 24° C. under a clear plastic hood with bottom ventilation until disease symptoms were fully expressed. Fungicide formulation, application and disease assessment on the sprayed leaves followed the procedures as described in the Example A.

[2] = system: Venturia inaequalis; assay: Apple scab (VENTIN) disease control; type: in vivo; conditions: 1 Day Protectant, 100 ppm
Description: Technical grades of materials were dissolved in acetone, which were then mixed with nine volumes of water containing 110 ppm Triton X-100. The fungicide solutions were applied onto wheat seedlings using an automated booth sprayer to run-off. All sprayed plants were allowed to air dry prior to further handling. All fungicides were evaluated using the aforementioned method for their activity vs. all target diseases. Wheat leaf blotch and brown rust activity were also evaluated using track spray applications, in which case the fungicides were formulated as EC formulations, containing 0.1% Trycol 5941 in the spray solutions. Wheat plants (variety Yuma) were grown from seed in a greenhouse in 50% mineral soil/50% soil-less Metro mix until the first leaf was fully emerged, with 7-10 seedlings per pot. These plants were inoculated with an aqueous spore suspension of Septoria tritici either prior to or after fungicide treatments. After inoculation the plants were kept in 100% relative humidity (one day in a dark dew chamber followed by two to three days in a lighted dew chamber at 20° C.) to permit spores to germinate and infect the leaf. The plants were then transferred to a greenhouse set at 20° C. for disease to develop. When disease symptoms were fully expressed on the l^st leaves of untreated plants, infection levels were assessed on a scale of 0 to 100 percent disease severity. Percent disease control was calculated using the ratio of disease severity on treated plants relative to untreated plants. Evaluation of Fungicidal Activity: Apple Scab (Venturia inaequalis; Bayer code […]) Apple seedlings (variety McIntosh) were grown in soil-less Metro mix, with one plant per pot. Seedlings with two expanding young leaves at the top (older leaves at bottom of the plants were trimmed) were used in the test. Plants were inoculated with a spore suspension of Venturia inaequalis 24 hr after fungicide treatment and kept in a 22° C. dew chamber with 100% RH for 48 hr, and then moved to a greenhouse set at 20° C. for disease to develop. Fungicide formulation, application and disease assessment on the sprayed leaves followed the procedures as described in the Example A.

[3] = system: Phakopsora pachyrhizi; assay: Asian soybean rust (PHAKPA) disease control; type: in vivo; conditions: 25 ppm; for PHAKPA 1DP disease control rating: 1 Day Protectant; for PHAKPA 3DC disease control rating: 3 Day Curative
Description: Evaluation of Fungicidal Activity: Asian Soybean Rust (Phakopsora pachyrhizi; Bayer Code PHAKPA)
Technical grades of materials were dissolved in acetone, which were then mixed with nine volumes of water containing 0.011% Tween 20. The fungicide solutions were applied onto soybean seedlings using an automated booth sprayer to run-off. All sprayed plants were allowed to air dry prior to further handling.
Soybean plants (variety Williams 82) were grown in soil-less Metro mix, with one plant per pot. Two weeks old seedlings were used for testing. Plants were inoculated either 3 days prior to or 1 day after fungicide treatments. Plants were incubated for 24 h in a dark dew room at 22° C. and 100% RH then transferred to a growth room at 23° C. for disease to develop. Disease severity was assessed on the sprayed leaves.

Structure (SMILES)	pest or weed control at 100 ppm [1] [%]	VENTIN disease control rating [2]	PHAKPA 1DP disease control rating [3]	PHAKPA 3DC disease control rating [3]	melting point [°C]
CCCO[C@H]1CCC[C@H](NC(=O)c2nccc(OC)c2OCOC(C)=O)C(=O)O[C@@H](C)[C@@H]1CCC(C)C [Compound 25, ((2-(((3S,7S,8S,9S)-8-isopentyl-9-methyl-2-oxo-7-propoxyoxonan-3-yl)carbamoyl)-4-methoxypyridin-3-yl)oxy)methyl acetate]	> 70	A (>70)	A (>70)	B (≦70)	–
CCCC[C@H]1[C@H](C)OC(=O)[C@@H](NC(=O)c2nccc(OC)c2OCOC(C)=O)CCC[C@@H]1Oc1ccccc1 [Compound 33]	> 70	–	–	–	–
COc1ccnc(C(=O)N[C@H]2CCC[C@H](Oc3ccccc3)[C@@H](CCC(C)C)[C@H](C)OC2=O)c1OC(C)=O [Compound 36]	> 70	B (≦70)	A (>70)	B (≦70)	–
COc1ccnc(C(=O)N[C@H]2CCC[C@H](Oc3ccccc3)[C@@H](CCC(C)C)[C@H](C)OC2=O)c1OCOC(C)=O [Compound 40]	> 70	A (>70)	A (>70)	B (≦70)	47 to 51
COc1ccnc(C(=O)N[C@H]2CCC[C@H](OCC3CC3)[C@@H](Cc3ccc(F)cc3)[C@H](C)OC2=O)c1OCOC(C)=O [Compound 61]	> 70	–	–	–	–
CCCO[C@H]1CCC[C@H](NC(=O)c2nccc(OC)c2OC(C)=O)C(=O)O[C@@H](C)[C@@H]1Cc1ccccc1 [Compound 70]	> 70	A (>70)	A (>70)	B (≦70)	56 to 61
CCCC[C@H]1[C@H](C)OC(=O)[C@@H](NC(=O)c2nccc(OC)c2OCOC(C)=O)CCC[C@@H]1OCC1CC1 [Compound 73]	> 70	–	–	–	–
CCCO[C@H]1CCC[C@H](NC(=O)c2nccc(OC)c2OC(C)=O)C(=O)O[C@@H](C)[C@@H]1CCC(C)C [Compound 74, 2-(((3S,7S,8S,9S)-8-isopentyl-9-methyl-2-oxo-7-propoxyoxonan-3-yl)carbamoyl)-4-methoxypyridin-3-yl acetate]	> 70	A (>70)	A (>70)	B (≦70)	46 to 50
